# Measured values from article PMC12040169 (PLOS Biology, 2025).
# Test: in vitro
# Conditions: human, hela cells, % viability
row,Structure (SMILES),"viability at 28.5 h, 10 µM [%]"
1,CCN(C)C(=O)c1cn2cc(-c3cc(C)oc3C)n(C)c(=O)c2n1 [CBK307494],94.9
2,COCc1nc(NCCn2c(C)cc(C)nc2=O)cc(C2CCOC2)n1 (stereo not shown) [CBK307495],92.6
3,Cc1nc(C)n(CCCNc2cc(C(C)C)nc3ccnn23)n1 [CBK307497],79.7
4,O=C(NCc1csc2c1CCCC2)N1CC(c2ccccn2)C1 [CBK307499],100
5,CCOc1ccc(Cl)cc1CN(C)C(=O)NCC(C)CN(C)C (stereo not shown) [CBK307500],121
6,CN(C)c1nc2c(c(-c3cncc(N)c3)n1)CCCC2 [CBK307503],105
7,COc1ccccc1CC(=O)N(Cc1cccnc1)C[C@@H]1CCC(=O)N1 [CBK307504],95.7
8,COc1c(C)cc(-c2nc(C)nc(C)c2C)cc1C [CBK307506],96.7
9,CNC(=O)CCc1ccccc1NC(=O)NCc1cnc(SC)n1C [CBK307507],101
10,Cc1nc2cc(OCc3nc(C(=O)NCC4CCOC4)co3)ccc2s1 (stereo not shown) [CBK307508],86.1
11,COCCNc1nc2c(c(N3CCSCC3)n1)CCNCC2 [CBK307510],111
12,Cn1ncc2c(NCCN3CCOC3=O)nc(C(C)(C)C)nc21 [CBK307511],75.3
13,CC(=O)c1ccc(-c2cc(F)cc3c2OC(CN)C3)s1 (stereo not shown) [CBK307513],54.2
14,CC(NC(=O)C1(Cn2ccnc2)CC1)c1nc(-c2ccccn2)no1 (stereo not shown) [CBK307514],107
15,CCN(CCO)C(=O)c1cccc(-c2cnn(C(F)F)c2C)c1 [CBK307519],95.5
16,CC(C)OCC(=O)NC1CCCc2nc(N3CCC(CO)CC3)ncc21 (stereo not shown) [CBK307520],94.5
17,Cc1ccc(CN2CCC(CN(C)C(=O)c3cc4sccc4[nH]3)CC2)o1 [CBK307522],102
18,CSCCN(C)c1nc2c(c(=O)[nH]1)Cc1ccccc1OC2 [CBK307523],100
19,COc1ccc(CN2CC=CC2C(=O)O)cc1Cn1cncn1 (stereo not shown) [CBK307524],76.2
20,CCCCSc1nc(N)cc(N2CCC(N3CCCC3=O)CC2)n1 [CBK307525],108
21,CN(C)S(=O)(=O)NC1CC(C)(C)Cc2c1cnn2-c1ccccc1 (stereo not shown) [CBK307533],94.5
22,O=C1CCCN1CCC1CCN(c2nccc(CCC(F)(F)F)n2)CC1 [CBK307534],90.1
23,CCC1C=CCN1S(=O)(=O)c1cccc(C(=O)NCc2cnn(C)c2)c1 (stereo not shown) [CBK307536],96.4

row,Structure (SMILES),"viability at 28.5 h, 10 µM [%]"
1,CCC(=O)Oc1ccc(C(=O)N2CCN(c3ccccc3F)CC2)cc1 [CBK307538],103
2,Cc1ccc(OC2(C(=O)N3CCCC3c3nccs3)CCNCC2)cc1 (stereo not shown) [CBK307539],94.6
3,CCSc1nc(=O)c2c(n1C)NC(=O)CC2c1ccccc1 (stereo not shown) [CBK307541],107
4,CCSc1nc(=O)c2c(n1C)NC(=O)CC2c1ccc(OC)cc1 (stereo not shown) [CBK307542],89.9
5,Cc1n[nH]cc1CN(C)c1cc([C@H]2C[C@@H](N)C2)nc(C2CC2)n1 [CBK307544],110
6,CCc1ccc(NC(=O)CN2CCN(c3ccccc3F)CC2)cc1 [CBK307549],112
7,CC1CCc2c(sc(NC(=O)CCC(=O)O)c2C(=O)N2CCOCC2)C1 (stereo not shown) [CBK307550],94.1
8,CCCn1cnnc1C(C)NC(=O)N(C)Cc1nc2cccc(C)c2[nH]1 (stereo not shown) [CBK307551],112
9,Cc1nc(NCCc2cnc(=O)n(C)c2O)cc(C2CCOC2)n1 (stereo not shown) [CBK307559],93.2
10,Cc1ccccc1-c1noc(CNC(Cn2ccnc2)C(C)C)n1 (stereo not shown) [CBK307560],89.1
11,Cc1c(C)n(Cc2ccco2)c2ncnc(NCCCC(=O)O)c12 [CBK307562],90.7
12,Cc1c(C)n(Cc2ccco2)c2ncnc(NCC(=O)O)c12 [CBK307563],101
13,CCOC(=O)c1cn([C@H]2CC[C@H](O)CC2)cc(Oc2ccccc2)c1=O [CBK307565],108
14,COCCn1c(=O)c2c(nc3oc(C(C)(C)C)cn32)n(C)c1=O [CBK307566],96.7
15,CSCCC(Nc1ncnc2c1c(C)c(C)n2Cc1ccco1)C(=O)O (stereo not shown) [CBK307568],92.3
16,O=C(Nc1ccc2c(c1)nc1n2CCOC1)C1CCCCC1 [CBK307570],90
17,Cc1cc(=O)n2c3c(cc(S(=O)(=O)NC4CC4)cc13)CCC2 [CBK307572],87
18,Cc1cc(C)n(CC(C)C(=O)Nc2cccnc2)n1 (stereo not shown) [CBK307573],97.5
19,Cc1nnc(CCNC2CCN(c3ncnc4c(C)csc34)CC2)s1 [CBK307574],84.9
20,COc1ccc(CNC(=O)c2cc(S(=O)(=O)N3CCOCC3)cs2)cc1 [CBK307577],95.7
21,COc1ccc(CNC(=O)c2cc(S(=O)(=O)N(C)C)cs2)cc1 [CBK307579],87.1
22,CCN1CCN(C(=O)CCNC(=O)c2cccc(OC)c2)CC1 [CBK307580],96.6
23,CCCN1CC(NS(=O)(=O)c2cc(OC)c(Cl)cc2OC)CC1=O (stereo not shown) [CBK307581],96.7

row,Structure (SMILES),"viability at 28.5 h, 10 µM [%]"
1,CCn1c(CC2CCN(C(=O)CCn3cc(C)cn3)CC2)nn(C)c1=O [CBK307584],89.7
2,CCOC(=O)c1c(NC(=O)NCc2cccnc2)sc2c1CCC2 [CBK307585],87.3
3,COc1ccc(CNC(=O)c2cc(S(=O)(=O)N(C)C)ccc2OC)cc1 [CBK307586],85.1
4,CCN(CCn1cccn1)c1nc2nonc2nc1NC1CCCC1 [CBK307589],106
5,Cn1c(=O)oc2ccc(C(=O)NCCN3CCCCC3CO)cc21 (stereo not shown) [CBK307594],78
6,Cc1cc(=O)n2c3c(cc(S(=O)(=O)NCC4CCCO4)cc13)CC2 (stereo not shown) [CBK307595],103
7,O=C(NCCCn1ccnc1)C1CCN(C(=O)c2cccc(Cl)c2)CC1 [CBK307596],116
8,CN(Cc1nnc(-c2ccc(C(C)(C)C)cc2)o1)C(=O)C1CCCO1 (stereo not shown) [CBK307597],106
9,O=C(O)C1(Oc2ccc3ncccc3c2)CCN(Cc2ccoc2)CC1 [CBK307598],90.9
10,CN1CCOCC(CNC(=O)c2ccc(-c3ccccc3CO)cc2)C1 (stereo not shown) [CBK307601],91.1
11,OC(Cc1ccccc1)c1cc2n(n1)CCN(Cc1ccsc1)C2 (stereo not shown) [CBK307603],89.5
12,CCOC(=O)c1cnc2ccc(Cl)cc2c1NC [CBK307605],71.1
13,CC(C(=O)Nc1ccc(S(N)(=O)=O)cc1)N1Cc2ccccc2C1=O (stereo not shown) [CBK307607],82.8
14,COc1ccc2c(c1)CCN(C(=O)C1CCc3nn(C)c(=O)n3C1)C2 (stereo not shown) [CBK307613],93.3
15,COCCNC(=O)c1cc2n(n1)C(C(F)(F)F)CC(c1cccs1)N2 (stereo not shown) [CBK307614],113
16,COc1ccccc1CCNC(=O)N1CCC(Oc2cccnc2)CC1 [CBK307615],106
17,Cc1cc(C)n(-c2ccc3nnc(CCC(=O)Nc4nccs4)n3n2)n1 [CBK307617],96.8
18,Cc1nc(O)cc(C2CCN(C(=O)c3csc4c3CCCC4)CC2)n1 [CBK307618],104
19,Cc1ccc2c(c1)OC(C)(C)CC2NS(C)(=O)=O (stereo not shown) [CBK307620],81.5
20,Cc1ccc2c(c1)OC(C)(C)CC2NC(=O)C1CCN(C)CC1 (stereo not shown) [CBK307626],110
21,CCn1cc(C(=O)Nc2nccs2)c(=O)c2ccc(C)nc21 [CBK307628],78.3
22,O=C(NC1CC1)c1cnc2ccc(F)cc2c1O [CBK307629],82.4
23,Cc1cc(C)n(C2CN(C(=O)NCCCOc3cccnc3)C2)n1 [CBK307632],84.1

row,Structure (SMILES),"viability at 28.5 h, 10 µM [%]"
1,CCn1c(=O)oc2cc(NC(=O)NCCCc3csc(N)n3)ccc21 [CBK307633],79.7
2,Cc1cc(C)n2nc(C(=O)NCCCn3ccnc3C(C)C)nc2n1 [CBK307635],94
3,CCOc1ccc(NC(=O)N(Cc2cnn(C)c2)CC(C)C)cc1C#N [CBK307636],93
4,CCCn1ncc(C(=O)NC(CC)c2cn3cccnc3n2)c1C (stereo not shown) [CBK307640],92.9
5,COCCN(Cc1cnn(C)c1)C(=O)NCc1nc2c(C)cccc2o1 [CBK307642],86.8
6,CN(Cc1nc(-c2ccccc2)no1)C(=O)COCC1CCCCO1 (stereo not shown) [CBK307643],106
7,CCOc1ccc(-c2ccnc(N3CCOC(CN)C3)n2)cc1C(=O)O (stereo not shown) [CBK307644],84
8,Cn1c(O)c(CCNc2cc(C3CCOC3)ncn2)cnc1=O (stereo not shown) [CBK307648],90.7
9,CCOc1ccc(-c2ccnc(N3CCCC(C)(O)C3)n2)cc1C(=O)O (stereo not shown) [CBK307652],117
10,Cc1ccc2c(c1)C(NC(=O)N(C)C1CCS(=O)(=O)CC1)CC(C)(C)O2 (stereo not shown) [CBK307654],108
11,CC(C)CCN(C)C(=O)c1cccc(S(=O)(=O)NCc2ccsc2)c1 [CBK307656],110
12,CN(Cc1nccs1)C(=O)NC1CCN(Cc2cccc(O)c2)CC1 [CBK307657],96.7
13,Cc1nn(C)c(C)c1-c1ccnc(NCCC2(O)CCN(C)CC2)n1 [CBK307659],86.1
14,CC(=O)Nc1ccc(CNC(=O)CN(C)Cc2cccc(O)c2)cc1 [CBK307660],84.8
15,COc1cc(Cn2ncc(N3CCCCC3)cc2=O)cc(OC)c1 [CBK307662],97.1
16,COc1cccn(CC(=O)N2CCc3sc(C(=O)N(C)C)cc3C2)c1=O [CBK307665],90.5
17,CC(C)c1nc(CCN(C)C(=O)NCc2cnc3cnccn23)no1 [CBK307666],108
18,Cc1nn(CC(=O)N(C)C(C)c2ccncn2)c(=O)c2ccccc12 (stereo not shown) [CBK307669],89
19,CCc1nnsc1C(=O)Nc1nn(C)c2cccc(N3CCOCC3)c12 [CBK307671],84.4
20,COc1ccccc1CN(Cc1cccnc1)C(=O)NC(C)C(C)C (stereo not shown) [CBK307672],85.2
21,Cc1nc(CCNC(=O)N(Cc2ccsc2)C2CC2)nc2c1CCCC2 [CBK307674],88.5
22,COc1cccc2ncn(CCc3csc(N)n3)c(=O)c12 [CBK307679],81.9
